Results published in patent US20140271573A1, “PHARMACO-CELLULAR THERAPEUTIC METHOD FOR THE TREATMENT OF MUSCULAR DYSTROPHIES” (PONTIFICIA UNIVERSIDAD CATÓLICA DE CHILE, priority 2013, published 2014).
“Also recorded” adds a separate entry of the source.

Legend:
C2C12 = experiment: Fibronectin and collagen type III protein levels induced by TGF-β1 in C2C12 cells, immunoblot; format: cell-based, mouse; settings: C2C12, 10 ng/ml TGF-β1, 50 μM andrographolide, 24 hrs
[1] = tested on: TGF-β1 canonical signaling pathway (p-Smad 2); experiment: pSmad-2 indirect immunofluorescence in tibialis anterior cryosections of mdx mice; format: in vivo, mouse; settings: exercised mdx mice, 1 mg/kg i.p. 3 times per week for 3 months
Procedure: FIG. 2. Andrographolide reduced expression and activity of the pro-fibrotic cytokine, TGF-β1, in mdx mice. To augment the extent of muscle fibrosis, 3 months old mdx mice were subjected to an exercise protocol for 3 months. Along this period one group was treated with 1 mg/kg andrographolide or vehicle (i.p. injections 3 time per week, 4 animal per group). A) TGF-β1 mRNA levels, an important pro-fibrotic cytokine, were determined in tibialis anterior muscle from Wild type (WT), Vehicle-Treated mdx and andrographolide-treated mdx mice by RT-qPCR using GAPDH as reference gene. Values correspond to the mean of dCT value±SD of three independent experiments, using four mice for each experimental condition and normalized to WT levels (*, P<0.05 relative to WT mice; #, P<0.05 relative to Vehicle-treated mdx mice). B) Detection of pSmad-2 (an intracellular TGF-β1 mediator) through indirect immunofluorescence analysis in cryosections of tibialis anterior muscle from Vehicle-treated and andrographolide-treated mdx mice. Bar corresponds to 200 μm.
Control or mdx (12 weeks old) male mice of C57BL/10 ScSn strain were studied. The animals were kept at room temperature with a […] night-day cycle and fed with pellets and water ad libitum. […]

CTGF = CTGF mRNA levels in tibialis anterior muscle of exercised mdx mice, RT-qPCR; format: in vivo, mouse; settings: 1 mg/kg i.p. 3 times per week for 3 months, vs vehicle
Procedure: (§1) FIG. 3. Andrographolide modulates CTGF action in vivo. A) To augment the extent of muscle fibrosis, 3 months old mdx mice were subjected to an exercise protocol for 3 months. Along this period one group was treated with 1 mg/kg andrographolide or vehicle (i.p. injections 3 time per week, 4 animal per group). CTGF mRNA levels, a downstream TGF-β1 pro-fibrotic mediator) were determined in tibialis anterior muscle from Wild type (WT), Vehicle-Treated mdx and andrographolide-treated mdx mice by RT-qPCR using GAPDH as reference gene. Values correspond to the mean of dCT value±SD of three independent experiments, using four mice for each experimental condition and normalized to WT levels (*, P<0.05 relative to WT mice; #, P<0.05 relative to Vehicle-treated mdx mice). B) Detection of macrophages (F4/80 positive cells) through immunohistochemistry analysis in cryosections of tibialis anterior muscle from andrographolide-treated WT mice that overexpress CTGF by adenovirus (adv CTGF) infection.
(§2) Control or mdx (12 weeks old) male mice of C57BL/10 ScSn strain were studied. The animals were kept at room temperature with a […] night-day cycle and fed with pellets and water ad libitum. Experimental exercise was performed for running the mice in a treadmill for three times per week, 30 minutes each time at 12 m/min during 3 or 4 months (De Luca et al., 2005; De Luca et al., 2003). […]

[2] = tested on: WT mice that overexpress CTGF; experiment: Macrophages (F4/80 positive cells) in tibialis anterior of WT mice overexpressing CTGF by adenovirus; format: in vivo, mouse; settings: CTGF overexpressed by adenovirus
Procedure: as §1
For immunofluorescence, snap-frozen muscles in thawing isopentane were sectioned and cryosections (7 μm) were fixed in 4% paraformaldehyde, blocked 1 hour in 10% goat serum in PBS, incubated for one hour at room temperature with specific antibodies against fibronectin (Sigma, USA), collagen I (Chemicon, USA), F4/80 (abcam, USA), p-Smad2 (abcam, USA) and dystrophin (Santa Cruz, USA). […]

mdx mice [3] = experiment: Hematoxylin and eosin histology of tibialis anterior muscle of mdx mice; format: in vivo, mouse; settings: exercised mdx mice, 1 mg/kg i.p. 3 times per week for 3 months, vs vehicle
Procedure: FIG. 4. Andrographolide reduced skeletal muscle damage in mdx mice. To augment the extent of muscle fibrosis, 3 months old mdx mice were subjected to an exercise protocol for 3 months. Along this period one group was treated with 1 mg/kg andrographolide or vehicle (i.p. injections 3 time per week, 6 animal per group). […] B) Evans blue dye uptake in tibialis anterior muscle fibers from wild-type (WT), Vehicle-treated mdx and andrographolide-treated mdx mice. Nuclei were labeled with Hoechst. Mice were injected i.p. with 1% Evans blue dye 24 hours before muscle fixation. Bar corresponds to 200 μm. […] Values are expressed as mean±SD of three independent experiments, using eight mice for each experimental condition. (*, P<0.05 relative to WT mice; #, P<0.05 relative to Vehicle-treated mdx mice).
as §2
Architecture and histology were detected by hematoxylin-eosin (H&E) stain in transverse sections of muscle (Morales et al., 2011).

mdx mice [4] = experiment: Survival and proliferation of grafted EGFP satellite cells in mdx mice, EGFP transgene real time qPCR; format: in vivo, mouse
From the text: Alternatively, it might be possibly that the host muscles have a diminished density of satellite cells, thus, the grafted cells would have no competition for the regenerating muscle fibers or instead the transplanted cells presents a better proliferation performance in the andrographolide treated mice muscles. The first possibility seems to be plausible considering the fibroblast migration data (FIG. 5), while the second hypothesis was excluded since no changes in the number of satellite cells present on isolated EDL myofibers obtained from the same transplanted mice in FIG. 5A were observed, with a mean of 12.5 satellite cells per EDL myofiber, as shown in the FIG. 5B. To test the last possibility, whether grafted cells have improved proliferation rate or survival, we purified satellite cells from the EGFP-transgenic C57BL/6 mice that constitutively expressed the EGFP transgene under the control of the chicken b-actin gene (C57BL/6-Tg(ACTbEGFP)10sba; Act-EGFP). […] The EGFP transgene present in the grafted muscles was detected by real time qPCR in parallel with the mouse b-actin as a housekeeping gene. Since every grafted cell carries only one copy of the EGFP gene (the homozygous EGFP mice die within 2 weeks after birth) the EGFP gene detection constitutes a specific, rapid, and objective quantitation of the grafted cells.

MES-13 cells = settings: cited from earlier work

C=C1CC[C@@H]2[C@](C)(CO)[C@H](O)CC[C@@]2(C)[C@@H]1C/C=C1/C(=O)OC[C@H]1O [andrographolide]
collagen type III protein levels induced by TGF-β1 in vitro (C2C12): decreased | fibronectin protein levels induced by TGF-β1 in vitro (C2C12): decreased | number of positive nuclei for phosphorylated smad2 protein [1]: reduced | CTGF expression (mRNA) in mdx mice (CTGF): reduced | number of F4/80 (macrophage marker) positive cells [2]: reduced | damaged areas in muscle, hematoxylin and eosin staining (mdx mice [3]): striking smaller muscle damaged areas; also recorded: prevented the increase of damaged areas | percentage of grafted cells compared to the fibrotic untreated mice (mdx mice [4]; 15 days post transplantation, EGFP transgene qPCR): 3 times | transplanted cells that die during the first 2 days (mdx mice [4]; EGFP satellite cells grafted in mdx mice, in both cases (treated and untreated)): 60% | phenotypes indicating diabetic nephropathy in MES-13 cells (MES-13 cells; MES-13 cells): reduces | antioxidant ability in a cellular environment (MES-13 cells): do not have antioxidant ability | intracellular oxidative states (MES-13 cells; high glucose cultured MES-13 cells): reduced
